Drawing on patent publication US10479784B2, “Substituted pyrazin-2-amines as inhibitors of ATR kinase” (Vertex Pharmaceuticals Incorporated, priority 2008, dated 2019), this text covers Ki for 40 molecules.

SMILES strings stand for the structures.

A word on the Ki: it is the equilibrium dissociation constant of an inhibitor or competing ligand from its target.

full-length ATR, sequence (Q13535 whole entry): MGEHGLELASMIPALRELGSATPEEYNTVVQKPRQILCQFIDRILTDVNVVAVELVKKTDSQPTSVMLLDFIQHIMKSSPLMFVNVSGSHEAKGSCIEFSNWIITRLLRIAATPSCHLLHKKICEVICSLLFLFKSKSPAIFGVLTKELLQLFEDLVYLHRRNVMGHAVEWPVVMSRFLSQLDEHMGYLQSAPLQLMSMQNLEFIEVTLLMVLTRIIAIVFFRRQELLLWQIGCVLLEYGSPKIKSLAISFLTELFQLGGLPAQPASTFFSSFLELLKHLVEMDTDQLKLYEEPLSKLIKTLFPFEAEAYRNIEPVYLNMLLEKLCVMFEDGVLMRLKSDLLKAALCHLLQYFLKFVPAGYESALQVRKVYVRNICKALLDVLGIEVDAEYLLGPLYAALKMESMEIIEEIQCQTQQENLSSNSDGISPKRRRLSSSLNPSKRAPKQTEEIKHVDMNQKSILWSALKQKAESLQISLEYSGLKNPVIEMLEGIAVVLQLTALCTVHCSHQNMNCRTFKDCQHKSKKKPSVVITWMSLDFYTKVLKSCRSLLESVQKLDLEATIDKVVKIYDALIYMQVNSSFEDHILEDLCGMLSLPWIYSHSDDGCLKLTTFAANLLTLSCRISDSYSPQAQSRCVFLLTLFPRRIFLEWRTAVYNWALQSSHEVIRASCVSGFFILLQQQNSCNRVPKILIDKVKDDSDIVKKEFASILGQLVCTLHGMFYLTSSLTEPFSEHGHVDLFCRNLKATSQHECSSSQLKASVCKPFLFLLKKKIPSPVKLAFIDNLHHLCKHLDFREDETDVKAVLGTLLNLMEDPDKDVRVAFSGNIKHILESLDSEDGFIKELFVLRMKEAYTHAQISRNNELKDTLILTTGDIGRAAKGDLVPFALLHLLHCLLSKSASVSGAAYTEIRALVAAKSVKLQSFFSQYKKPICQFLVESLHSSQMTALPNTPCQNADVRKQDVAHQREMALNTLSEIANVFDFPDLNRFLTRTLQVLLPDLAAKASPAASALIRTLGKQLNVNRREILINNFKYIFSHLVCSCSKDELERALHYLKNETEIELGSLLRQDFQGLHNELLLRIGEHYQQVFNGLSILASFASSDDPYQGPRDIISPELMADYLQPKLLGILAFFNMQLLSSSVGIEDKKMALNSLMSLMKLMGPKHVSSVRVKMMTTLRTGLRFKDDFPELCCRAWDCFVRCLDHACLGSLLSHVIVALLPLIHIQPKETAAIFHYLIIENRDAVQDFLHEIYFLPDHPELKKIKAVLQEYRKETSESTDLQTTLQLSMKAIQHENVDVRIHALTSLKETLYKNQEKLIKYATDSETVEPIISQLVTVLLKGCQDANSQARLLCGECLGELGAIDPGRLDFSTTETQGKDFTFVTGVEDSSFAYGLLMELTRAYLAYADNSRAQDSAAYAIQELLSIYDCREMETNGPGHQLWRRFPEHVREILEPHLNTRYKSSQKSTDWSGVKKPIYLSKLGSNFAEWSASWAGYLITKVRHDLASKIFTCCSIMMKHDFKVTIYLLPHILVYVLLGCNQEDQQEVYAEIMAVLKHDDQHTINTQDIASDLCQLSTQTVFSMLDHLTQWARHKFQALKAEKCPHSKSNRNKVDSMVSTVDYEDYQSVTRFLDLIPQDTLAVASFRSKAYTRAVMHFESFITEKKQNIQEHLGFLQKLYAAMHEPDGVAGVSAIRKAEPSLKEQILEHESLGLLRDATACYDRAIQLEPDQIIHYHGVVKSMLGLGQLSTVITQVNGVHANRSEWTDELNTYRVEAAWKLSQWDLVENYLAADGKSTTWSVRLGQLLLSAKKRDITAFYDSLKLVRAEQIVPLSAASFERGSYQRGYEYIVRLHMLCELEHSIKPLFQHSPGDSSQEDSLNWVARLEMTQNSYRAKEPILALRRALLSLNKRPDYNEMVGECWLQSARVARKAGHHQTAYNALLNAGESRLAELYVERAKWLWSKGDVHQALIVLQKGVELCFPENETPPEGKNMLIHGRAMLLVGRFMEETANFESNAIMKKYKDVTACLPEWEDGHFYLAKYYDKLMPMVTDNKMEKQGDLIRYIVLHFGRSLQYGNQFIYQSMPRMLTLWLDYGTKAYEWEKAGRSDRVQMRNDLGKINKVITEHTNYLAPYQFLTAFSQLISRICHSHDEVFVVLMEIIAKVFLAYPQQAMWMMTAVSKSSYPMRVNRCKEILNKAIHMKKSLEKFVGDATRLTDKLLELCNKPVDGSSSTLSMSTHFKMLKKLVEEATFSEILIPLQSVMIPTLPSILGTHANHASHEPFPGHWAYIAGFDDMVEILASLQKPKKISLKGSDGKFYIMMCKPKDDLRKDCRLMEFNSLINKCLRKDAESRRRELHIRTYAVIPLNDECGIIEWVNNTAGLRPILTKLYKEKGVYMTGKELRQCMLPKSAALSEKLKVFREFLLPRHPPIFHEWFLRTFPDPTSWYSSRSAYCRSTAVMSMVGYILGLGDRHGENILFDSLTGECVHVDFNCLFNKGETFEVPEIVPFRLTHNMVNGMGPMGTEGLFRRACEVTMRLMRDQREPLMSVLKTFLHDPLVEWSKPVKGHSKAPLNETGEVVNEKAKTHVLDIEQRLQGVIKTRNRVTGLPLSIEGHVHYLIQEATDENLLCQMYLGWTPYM

The target in this assay is full-length ATR (Homo sapiens (Human), UniProt Q13535). The experiment in a line: ATR Inhibition Assay (radioactive-phosphate incorporation). The format is biochemical. Particulars: read-out: ATR Ki. The procedure, abridged:
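Full-length human ATR (5 nM) was assayed at 25 °C in 50 mM Tris/HCl pH 7.5, 10 mM MgCl2, 1 mM DTT, with 10 μM [γ-33P]ATP and 800 μM peptide, after 10-min compound preincubation. Reactions were stopped after 24 h, captured on phosphocellulose and counted; Ki(app) came from non-linear regression of initial rates.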
As for `CC(C)S(=O)(=O)c1ccc(-c2cnc(N)c(-c3nnc(-c4ccc(C5CCCN5)s4)o3)n2)cc1` (stereo not shown) [IA-147, 5-(4-isopropylsulfonylphenyl)-3-[5-(5-pyrrolidin-2-yl-2-thienyl)-1,3,4-oxadiazol-2-yl]pyrazin-2-amine], the Ki is not above 10 nM.

For `Nc1ncc(-c2cccc3ncccc23)nc1-c1nnc(-c2ccccc2)o1` [IA-260, 3-(5-phenyl-1,3,4-oxadiazol-2-yl)-5-(5-quinolyl)pyrazin-2-amine], the Ki fell in the range of 10 to 100 nM.

`Nc1ncc(-c2ccccc2)nc1-c1nc2cccc(O)c2[nH]1` [Compound I-113, 2-(3-amino-6-phenylpyrazin-2-yl)-1H-benzo[d]imidazol-7-ol]: the Ki is 100 to 5000 nM. Turning to `CC(C)S(=O)(=O)c1ccc(-c2cnc(N)c(-c3nnc(CCCCN)o3)n2)cc1` [IA-92, 3-[5-(4-aminobutyl)-1,3,4-oxadiazol-2-yl]-5-(4-isopropylsulfonylphenyl) pyrazin-2-amine], the Ki lay in the range of 100 to 5000 nM. On to `Nc1ncc(-c2ccc(C(=O)O)cc2)nc1C(=O)Nc1ccccc1` [Compound I-7, 4-(5-amino-6-(phenylcarbamoyl)pyrazin-2-yl)benzoic acid], for which the Ki lay in the range of 10 to 100 nM. On to `Nc1ncc(-c2cccnc2)nc1C(=O)Nc1ccccc1` [Compound I-85, 3-amino-N-phenyl-6-(pyridin-3-yl)pyrazine-2-carboxamide], for which the Ki is 10 to 100 nM. For `CC(C)(C)S(=O)(=O)c1ccc(-c2cnc(N)c(-c3nnc(-c4ccccc4)o3)n2)cc1` [IA-280, 5-(4-tert-butylsulfonylphenyl)-3-(5-phenyl-1,3,4-oxadiazol-2-yl)pyrazin-2-amine], the Ki is not above 10 nM. The same measure for `COc1ccc(NC(=O)c2nc(-c3cccnc3)cnc2N)cc1` [Compound I-84, 3-amino-N-(4-methoxyphenyl)-6-(pyridin-3-yl)pyrazine-2-carboxamide]: 100 to 5000 nM.

For `CC(C)S(=O)(=O)c1ccc(-c2cnc(N)c(-c3nnc(-c4ccc(O)cc4)o3)n2)cc1` [IA-193, 4-[5-[3-amino-6-(4-isopropylsulfonylphenyl)pyrazin-2-yl]-1,3,4-oxadiazol-2-yl]phenol], the Ki was not above 10 nM.

On to `CN(C)CCS(=O)(=O)c1ccc(-c2cnc(N)c(-c3nnc(-c4ccc(O)cc4)o3)n2)cc1` [IA-191, 4-[5-[3-amino-6-[4-(2-dimethylaminoethylsulfonyl)phenyl]pyrazin-2-yl]-1,3,4-oxadiazol-2-yl]phenol], for which the inhibitory constant (Ki) was not above 10 nM. With `Nc1ncc(-c2ccc(C(=O)N3CCCNCC3)cc2)nc1-c1nnc(-c2ccccc2)o1` [IA-1], the Ki is not above 10 nM. In the case of `COC1CN(C(=O)c2ccc(-c3cnc(N)c(C(=O)Nc4ccccc4)n3)cc2)C1` [Compound I-44, 3-amino-6-(4-(3-methoxyazetidine-1-carbonyl)phenyl)-N-phenylpyrazine-2-carboxamide], the Ki fell in the range of 10 to 100 nM. For `Nc1ncc(-c2cccc(O)c2)nc1-c1nc2ccccc2[nH]1` [Compound I-126, 3-(5-amino-6-(1H-benzo[d]imidazol-2-yl)pyrazin-2-yl)phenol], the Ki was 100 to 5000 nM. In the case of `CC(C)S(=O)(=O)c1ccc(-c2cnc(N)c(-c3nnc(N4CCNCC4)o3)n2)cc1` [IA-239, 5-(4-isopropylsulfonylphenyl)-3-(5-piperazin-1-yl-1,3,4-oxadiazol-2-yl)pyrazin-2-amine], the inhibitory constant (Ki) was in the range of 100 to 5000 nM. For `Cn1c(NC(=O)c2nc(-c3ccc(C(=O)N4CCCNCC4)cc3)cnc2N)nc2ccccc21` [Compound V-25], the Ki lay in the range of 100 to 5000 nM. As to `COCc1ccccc1-c1cnc(N)c(-c2nnc(-c3ccccc3)o2)n1` [IA-125, 5-[2-(methoxymethyl)phenyl]-3-(5-phenyl-1,3,4-oxadiazol-2-yl)pyrazin-2-amine], the Ki lay within 100 to 5000 nM.

`Nc1ncc(-c2cccc(C(=O)N3CCOCC3)c2)nc1C(=O)Nc1ccccc1` [Compound I-20, 3-amino-6-(3-(morpholine-4-carbonyl)phenyl)-N-phenylpyrazine-2-carboxamide]: the Ki is 10 to 100 nM. Next, `CC(C)S(=O)(=O)c1ccc(-c2cnc(N)c(-c3nnc(CN)o3)n2)cc1` [IA-168, 3-[5-(aminomethyl)-1,3,4-oxadiazol-2-yl]-5-(4-isopropylsulfonylphenyl)pyrazin-2-amine]: 100 to 5000 nM; `Nc1ncc(-c2ccoc2)nc1-c1nnc(-c2ccccc2)o1` [IA-170, 5-(3-furyl)-3-(5-phenyl-1,3,4-oxadiazol-2-yl)pyrazin-2-amine]: 10 to 100 nM; `N#Cc1ccc(-c2cnc(N)c(-c3nc4ccccc4[nH]3)n2)cc1` [Compound I-129, 4-(5-amino-6-(1H-benzo[d]imidazol-2-yl)pyrazin-2-yl)benzonitrile]: 10 to 100 nM. As for `CSc1ccccc1-c1cnc(N)c(-c2nnc(-c3ccccc3)o2)n1` [IA-230, 5-(2-methylsulfanylphenyl)-3-(5-phenyl-1,3,4-oxadiazol-2-yl)pyrazin-2-amine], the Ki lay in the range of 10 to 100 nM. As to `CN(C)CCOc1cc(-c2cnc(N)c(-c3nnc(-c4ccccc4)o3)n2)ccn1` [IA-165, 5-[2-(2-dimethylaminoethyloxy)-4-pyridyl]-3-(5-phenyl-1,3,4-oxadiazol-2-yl)pyrazin-2-amine], the inhibition constant (Ki) is 10 to 100 nM. Regarding `CN(C)C(=O)c1ccc(-c2cnc(N)c(-c3nnc(-c4ccccc4)o3)n2)c(C=CF)c1` [IA-148, 4-[5-amino-6-(5-phenyl-1,3,4-oxadiazol-2-yl)pyrazin-2-yl]-3-(2-fluorovinyl)-N,N-dimethyl-benzamide], the inhibition constant (Ki) lay within 100 to 5000 nM. Consider `Cc1ccc(-c2nnc(-c3nc(-c4ccc(C(=O)N(C)C)cc4)cnc3N)o2)s1` [IA-245, 4-[5-amino-6-[5-(5-methyl-2-thienyl)-1,3,4-oxadiazol-2-yl]pyrazin-2-yl]-N,N-dimethyl-benzamide], for which the Ki fell in the range of 10 to 100 nM.

For `CC(C)S(=O)(=O)c1ccc(-c2cnc(N)c(-c3nnc(-c4ccc(CNCCO)cc4)o3)n2)cc1` [IA-178, 2-(4-(5-(3-amino-6-(4-(isopropylsulfonyl)phenyl)pyrazin-2-yl)-1,3,4-oxadiazol-2-yl)benzylamino)ethanol], the Ki is not above 10 nM. `COc1ccc(-c2cnc(N)c(-c3nnc(-c4ccccc4)o3)n2)cn1` [IA-117, 5-(6-methoxy-3-pyridyl)-3-(5-phenyl-1,3,4-oxadiazol-2-yl)pyrazin-2-amine]: the Ki is 100 to 5000 nM. The same measure for `CCn1cc(-c2cnc(N)c(-c3nnc(-c4ccccc4)o3)n2)cn1` [IA-210, 5-(1-ethylpyrazol-4-yl)-3-(5-phenyl-1,3,4-oxadiazol-2-yl)pyrazin-2-amine]: 10 to 100 nM; for `CC(C)S(=O)(=O)c1ccc(-c2cnc(N)c(-c3nnc(-c4ccc(CN[C@H](C)CO)cc4F)o3)n2)cc1` [IA-333, (R)-2-(4-(5-(3-amino-6-(4-(isopropylsulfonyl)phenyl)pyrazin-2-yl)-1,3,4-oxadiazol-2-yl)-3-fluorobenzylamino)propan-1-ol]: not above 10 nM.

Take `CNCc1ccc(-c2nnc(-c3nc(-c4ccc(S(=O)(=O)C(C)CCO)cc4)cnc3N)o2)cc1` (stereo not shown) [IA-88, 3-[4-[5-amino-6-[5-[4-(methylaminomethyl)phenyl]-1,3,4-oxadiazol-2-yl]pyrazin-2-yl]phenyl]sulfonylbutan-1-ol]: the Ki is not above 10 nM. Take `CC(=O)c1cccc(-c2cnc(N)c(-c3nnc(-c4ccccc4)o3)n2)c1` [IA-249, 1-[3-[5-amino-6-(5-phenyl-1,3,4-oxadiazol-2-yl)pyrazin-2-yl]phenyl]ethanone]: the Ki was 10 to 100 nM. `Cc1cc(NC(=O)c2nc(-c3ccc(S(C)(=O)=O)cc3)cnc2N)n(C)n1` [VII-3]: the Ki fell in the range of 100 to 5000 nM. `Nc1ncc(-c2ccc(C(=O)N3CCCNCC3)cc2)nc1C(=O)Nc1ccccc1` [Compound I-43, 6-(4-(1,4-diazepane-1-carbonyl)phenyl)-3-amino-N-phenylpyrazine-2-carboxamide]: the Ki was in the range of 10 to 100 nM.

Regarding `CC(C)S(=O)(=O)c1ccc(-c2cnc(N)c(-c3nnc(C(=O)N4CCCNCC4)o3)n2)cc1` [IA-79, [5-[3-amino-6-(4-isopropylsulfonylphenyl)pyrazin-2-yl]-1,3,4-oxadiazol-2-yl]-(1,4-diazepan-1-yl)methanone], the Ki lay within 10 to 100 nM. In the case of `N#CCCN1CCN(C(=O)c2cccc(-c3cnc(N)c(C(=O)Nc4ccccc4)n3)c2)CC1` [Compound I-58, 3-amino-6-(3-(4-(2-cyanoethyl)piperazine-1-carbonyl)phenyl)-N-phenylpyrazine-2-carboxamide], the Ki is 100 to 5000 nM. Regarding `N#CCc1ccccc1-c1cnc(N)c(-c2nnc(-c3ccccc3)o2)n1` [IA-221, 2-[2-[5-amino-6-(5-phenyl-1,3,4-oxadiazol-2-yl)pyrazin-2-yl]phenyl]acetonitrile], the Ki lay in the range of 100 to 5000 nM.

Turning to `CCS(=O)(=O)c1ccc(-c2cnc(N)c(-c3nnc(-c4ccc(CNC)cc4)o3)n2)cc1` [IA-307, 5-(4-(ethylsulfonyl)phenyl)-3-(5-(4-((methylamino)methyl)phenyl)-1,3,4-oxadiazol-2-yl)pyrazin-2-amine], the Ki is not above 10 nM. Next, `Cc1ccc2nc(-c3nc(-c4ccc(S(C)(=O)=O)cc4)cnc3N)[nH]c2c1` [Compound I-117, 3-(6-methyl-1H-benzo[d]imidazol-2-yl)-5-(4-(methylsulfonyl)phenyl) pyrazin-2-amine]: 10 to 100 nM; `CC(C)S(=O)(=O)c1ccc(-c2cnc(N)c(-c3nnc(-c4cccc([C@@H](C)N)c4)o3)n2)cc1` [IA-80, 3-[5-[3-[(1R)-1-aminoethyl]phenyl]-1,3,4-oxadiazol-2-yl]-5-(4-isopropylsulfonylphenyl)pyrazin-2-amine]: not above 10 nM; `CC(=O)c1ccc(-c2cnc(N)c(C(=O)Nc3ccccc3)n2)cc1` [Compound I-17, 6-(4-acetylphenyl)-3-amino-N-phenylpyrazine-2-carboxamide]: 100 to 5000 nM. For the molecule `Nc1ncc(-c2ccc(C(=O)CN3CCC(O)CC3)cc2)nc1C(=O)Nc1ccccc1` [Compound I-23, 3-amino-6-(4-(2-(4-hydroxypiperidin-1-yl)acetyl)phenyl)-N-phenylpyrazine-2-carboxamide], the Ki fell in the range of 10 to 100 nM.
